Assay results reported in article PMC11173508, “Pharmacokinetics and Tissue Distribution of Itampolin A following Intragastric and Intravenous Administration in Rats Using Ultra-High-Performance Liquid Chromatography–Tandem Mass Spectrometry” (Molecules, 2024).

Test: Stability of itampolin A in biological samples under different storage conditions
Assay type: physicochemical, rat
Settings: for Stability, Autosampler 4 °C for 24 h / Stability, Long-Term (at −80 °C for 30 Days) / Stability, Short-Term (at Room Temperature for 4 h) / Stability, Three Freeze–Thaw Cycles: n = 5, in %
Experimental: The stability of itampolin A was investigated by analyzing five replicates of the samples at three QC levels (3, 40, and 1280 ng/mL) under different storage conditions: (1) 4 h exposure at room temperature, (2) 24 h storage in the autosampler at 4 °C, (3) three freeze–thaw cycles, and (4) storage at −80 °C for 30 days. The samples were considered stable if the average percentage concentration deviation was within 15% of the actual value.

Stability, Autosampler 4 °C for 24 h (brain, spiked 3 ng/mL): 98.3 ± 5.8
Stability, Long-Term (at −80 °C for 30 Days) (brain, spiked 3 ng/mL): 94.3 ± 8.7
Stability, Short-Term (at Room Temperature for 4 h) (brain, spiked 3 ng/mL): 112.6 ± 3.9
Stability, Three Freeze–Thaw Cycles (brain, spiked 3 ng/mL): 99.5 ± 6.3
Stability, Autosampler 4 °C for 24 h (brain, spiked 40 ng/mL): 108.0 ± 4.0
Stability, Long-Term (at −80 °C for 30 Days) (brain, spiked 40 ng/mL): 95.0 ± 2.9
Stability, Short-Term (at Room Temperature for 4 h) (brain, spiked 40 ng/mL): 99.9 ± 10.9
Stability, Three Freeze–Thaw Cycles (brain, spiked 40 ng/mL): 93.7 ± 7.8
Stability, Autosampler 4 °C for 24 h (brain, spiked 1280 ng/mL): 96.8 ± 8.3
Stability, Long-Term (at −80 °C for 30 Days) (brain, spiked 1280 ng/mL): 94.6 ± 5.7
Stability, Short-Term (at Room Temperature for 4 h) (brain, spiked 1280 ng/mL): 99.7 ± 2.9
Stability, Three Freeze–Thaw Cycles (brain, spiked 1280 ng/mL): 104.3 ± 2.6
Stability, Autosampler 4 °C for 24 h (heart, spiked 3 ng/mL): 87.2 ± 7.2
Stability, Long-Term (at −80 °C for 30 Days) (heart, spiked 3 ng/mL): 103.3 ± 6.8
Stability, Short-Term (at Room Temperature for 4 h) (heart, spiked 3 ng/mL): 97.7 ± 3.6
Stability, Three Freeze–Thaw Cycles (heart, spiked 3 ng/mL): 94.3 ± 6.5
Stability, Autosampler 4 °C for 24 h (heart, spiked 40 ng/mL): 103.9 ± 3.5
Stability, Long-Term (at −80 °C for 30 Days) (heart, spiked 40 ng/mL): 97.4 ± 5.3
Stability, Short-Term (at Room Temperature for 4 h) (heart, spiked 40 ng/mL): 100.3 ± 2.6
Stability, Three Freeze–Thaw Cycles (heart, spiked 40 ng/mL): 108.3 ± 9.7
Stability, Autosampler 4 °C for 24 h (heart, spiked 1280 ng/mL): 94.0 ± 7.3
Stability, Long-Term (at −80 °C for 30 Days) (heart, spiked 1280 ng/mL): 95.3 ± 5.4
Stability, Short-Term (at Room Temperature for 4 h) (heart, spiked 1280 ng/mL): 89.3 ± 5.3
Stability, Three Freeze–Thaw Cycles (heart, spiked 1280 ng/mL): 98.9 ± 4.9
Stability, Autosampler 4 °C for 24 h (intestine, spiked 3 ng/mL): 99.5 ± 5.3
Stability, Long-Term (at −80 °C for 30 Days) (intestine, spiked 3 ng/mL): 96.3 ± 7.9
Stability, Short-Term (at Room Temperature for 4 h) (intestine, spiked 3 ng/mL): 100.1 ± 6.1
Stability, Three Freeze–Thaw Cycles (intestine, spiked 3 ng/mL): 108.7 ± 2.9
Stability, Autosampler 4 °C for 24 h (intestine, spiked 40 ng/mL): 106.4 ± 8.9
Stability, Long-Term (at −80 °C for 30 Days) (intestine, spiked 40 ng/mL): 85.9 ± 7.4
Stability, Short-Term (at Room Temperature for 4 h) (intestine, spiked 40 ng/mL): 101.3 ± 2.3
Stability, Three Freeze–Thaw Cycles (intestine, spiked 40 ng/mL): 98.3 ± 5.0
Stability, Autosampler 4 °C for 24 h (intestine, spiked 1280 ng/mL): 102.3 ± 4.1
Stability, Long-Term (at −80 °C for 30 Days) (intestine, spiked 1280 ng/mL): 89.0 ± 7.9
Stability, Short-Term (at Room Temperature for 4 h) (intestine, spiked 1280 ng/mL): 99.7 ± 3.3
Stability, Three Freeze–Thaw Cycles (intestine, spiked 1280 ng/mL): 107.5 ± 8.2
Stability, Autosampler 4 °C for 24 h (kidney, spiked 3 ng/mL): 93.0 ± 8.9
Stability, Long-Term (at −80 °C for 30 Days) (kidney, spiked 3 ng/mL): 89.1 ± 7.1
Stability, Short-Term (at Room Temperature for 4 h) (kidney, spiked 3 ng/mL): 98.6 ± 4.0
Stability, Three Freeze–Thaw Cycles (kidney, spiked 3 ng/mL): 97.1 ± 6.7
Stability, Autosampler 4 °C for 24 h (kidney, spiked 40 ng/mL): 100.7 ± 7.6
Stability, Long-Term (at −80 °C for 30 Days) (kidney, spiked 40 ng/mL): 97.3 ± 8.5
Stability, Short-Term (at Room Temperature for 4 h) (kidney, spiked 40 ng/mL): 106.8 ± 7.3
Stability, Three Freeze–Thaw Cycles (kidney, spiked 40 ng/mL): 98.4 ± 5.0
Stability, Autosampler 4 °C for 24 h (kidney, spiked 1280 ng/mL): 92.7 ± 4.2
Stability, Long-Term (at −80 °C for 30 Days) (kidney, spiked 1280 ng/mL): 110.4 ± 5.9
Stability, Short-Term (at Room Temperature for 4 h) (kidney, spiked 1280 ng/mL): 99.8 ± 8.1
Stability, Three Freeze–Thaw Cycles (kidney, spiked 1280 ng/mL): 98.8 ± 3.6
Stability, Autosampler 4 °C for 24 h (liver, spiked 3 ng/mL): 96.3 ± 8.2
Stability, Long-Term (at −80 °C for 30 Days) (liver, spiked 3 ng/mL): 93.7 ± 5.1
Stability, Short-Term (at Room Temperature for 4 h) (liver, spiked 3 ng/mL): 98.2 ± 7.5
Stability, Three Freeze–Thaw Cycles (liver, spiked 3 ng/mL): 103.3 ± 4.7
Stability, Autosampler 4 °C for 24 h (liver, spiked 40 ng/mL): 98.8 ± 4.8
Stability, Long-Term (at −80 °C for 30 Days) (liver, spiked 40 ng/mL): 87.1 ± 6.8
Stability, Short-Term (at Room Temperature for 4 h) (liver, spiked 40 ng/mL): 93.5 ± 2.5
Stability, Three Freeze–Thaw Cycles (liver, spiked 40 ng/mL): 96.4 ± 8.1
Stability, Autosampler 4 °C for 24 h (liver, spiked 1280 ng/mL): 113.6 ± 4.2
Stability, Long-Term (at −80 °C for 30 Days) (liver, spiked 1280 ng/mL): 97.9 ± 5.2
Stability, Short-Term (at Room Temperature for 4 h) (liver, spiked 1280 ng/mL): 102.9 ± 6.5
Stability, Three Freeze–Thaw Cycles (liver, spiked 1280 ng/mL): 95.1 ± 9.2
Stability, Autosampler 4 °C for 24 h (lung, spiked 3 ng/mL): 102.5 ± 9.3
Stability, Long-Term (at −80 °C for 30 Days) (lung, spiked 3 ng/mL): 95.6 ± 4.9
Stability, Short-Term (at Room Temperature for 4 h) (lung, spiked 3 ng/mL): 108.7 ± 5.1
Stability, Three Freeze–Thaw Cycles (lung, spiked 3 ng/mL): 95.9 ± 7.2
Stability, Autosampler 4 °C for 24 h (lung, spiked 40 ng/mL): 99.3 ± 6.9
Stability, Long-Term (at −80 °C for 30 Days) (lung, spiked 40 ng/mL): 106.7 ± 8.8
Stability, Short-Term (at Room Temperature for 4 h) (lung, spiked 40 ng/mL): 103.1 ± 3.3
Stability, Three Freeze–Thaw Cycles (lung, spiked 40 ng/mL): 86.0 ± 4.2
Stability, Autosampler 4 °C for 24 h (lung, spiked 1280 ng/mL): 98.5 ±3.1
Stability, Long-Term (at −80 °C for 30 Days) (lung, spiked 1280 ng/mL): 96.4 ± 4.8
Stability, Short-Term (at Room Temperature for 4 h) (lung, spiked 1280 ng/mL): 101.2 ± 2.9
Stability, Three Freeze–Thaw Cycles (lung, spiked 1280 ng/mL): 91.4 ± 5.9
Stability, Autosampler 4 °C for 24 h (plasma, spiked 3 ng/mL): 97.3 ± 5.5
Stability, Long-Term (at −80 °C for 30 Days) (plasma, spiked 3 ng/mL): 90.5 ± 6.7
Stability, Short-Term (at Room Temperature for 4 h) (plasma, spiked 3 ng/mL): 103.9 ± 8.0
Stability, Three Freeze–Thaw Cycles (plasma, spiked 3 ng/mL): 106.8 ± 8.8
Stability, Autosampler 4 °C for 24 h (plasma, spiked 40 ng/mL): 96.6 ± 6.3
Stability, Long-Term (at −80 °C for 30 Days) (plasma, spiked 40 ng/mL): 93.6 ± 8.2
Stability, Short-Term (at Room Temperature for 4 h) (plasma, spiked 40 ng/mL): 100.1 ± 4.1
Stability, Three Freeze–Thaw Cycles (plasma, spiked 40 ng/mL): 95.3 ± 8.3
Stability, Autosampler 4 °C for 24 h (plasma, spiked 1280 ng/mL): 98.3 ± 2.9
Stability, Long-Term (at −80 °C for 30 Days) (plasma, spiked 1280 ng/mL): 95.8 ± 8.4
Stability, Short-Term (at Room Temperature for 4 h) (plasma, spiked 1280 ng/mL): 97.8 ± 4.1
Stability, Three Freeze–Thaw Cycles (plasma, spiked 1280 ng/mL): 110.6 ± 5.6
stability during processing procedures (room temperature for 4 h and autosampler for 24 h, deviation in concentration within ±15% from nominal values): stable
Stability, Autosampler 4 °C for 24 h (spleen, spiked 3 ng/mL): 103.8 ± 8.5
Stability, Long-Term (at −80 °C for 30 Days) (spleen, spiked 3 ng/mL): 89.5 ± 8.9
Stability, Short-Term (at Room Temperature for 4 h) (spleen, spiked 3 ng/mL): 96.2 ± 2.2
Stability, Three Freeze–Thaw Cycles (spleen, spiked 3 ng/mL): 98.4 ± 6.6
Stability, Autosampler 4 °C for 24 h (spleen, spiked 40 ng/mL): 105.8 ± 3.6
Stability, Long-Term (at −80 °C for 30 Days) (spleen, spiked 40 ng/mL): 102.9 ± 8.7
Stability, Short-Term (at Room Temperature for 4 h) (spleen, spiked 40 ng/mL): 100.6 ± 3.8
Stability, Three Freeze–Thaw Cycles (spleen, spiked 40 ng/mL): 112.2 ± 6.5
Stability, Autosampler 4 °C for 24 h (spleen, spiked 1280 ng/mL): 101.2 ± 4.2
Stability, Long-Term (at −80 °C for 30 Days) (spleen, spiked 1280 ng/mL): 104.1 ± 5.2
Stability, Short-Term (at Room Temperature for 4 h) (spleen, spiked 1280 ng/mL): 98.4 ± 2.1
Stability, Three Freeze–Thaw Cycles (spleen, spiked 1280 ng/mL): 92.4 ± 7.8
Stability, Autosampler 4 °C for 24 h (stomach, spiked 3 ng/mL): 87.5 ± 3.3
Stability, Long-Term (at −80 °C for 30 Days) (stomach, spiked 3 ng/mL): 92.6 ± 6.5
Stability, Short-Term (at Room Temperature for 4 h) (stomach, spiked 3 ng/mL): 100.6 ± 7.6
Stability, Three Freeze–Thaw Cycles (stomach, spiked 3 ng/mL): 103.2 ± 4.2
Stability, Autosampler 4 °C for 24 h (stomach, spiked 40 ng/mL): 104.8 ± 7.8
Stability, Long-Term (at −80 °C for 30 Days) (stomach, spiked 40 ng/mL): 95.6 ± 5.8
Stability, Short-Term (at Room Temperature for 4 h) (stomach, spiked 40 ng/mL): 99.0 ± 4.3
Stability, Three Freeze–Thaw Cycles (stomach, spiked 40 ng/mL): 114.8 ± 6.6
Stability, Autosampler 4 °C for 24 h (stomach, spiked 1280 ng/mL): 98.5 ± 2.6
Stability, Long-Term (at −80 °C for 30 Days) (stomach, spiked 1280 ng/mL): 94.1 ± 6.1
Stability, Short-Term (at Room Temperature for 4 h) (stomach, spiked 1280 ng/mL): 99.1 ± 4.2
Stability, Three Freeze–Thaw Cycles (stomach, spiked 1280 ng/mL): 97.7 ± 4.7
effect of storage on quantification (three freeze–thaw cycles and long-term storage (−80 °C for 30 days)): no effect on the quantification
SMILES: COc1c(Br)cc(C[C@H](NC(=O)Cc2ccc(OCCCNC(C)=O)cc2)C(=O)NCCc2cc(Br)c(O)c(Br)c2)cc1Br [itampolin A, Itampolin A]
